What was measured:
[1] = system: Glo-Response ARE-luc2P HEK293 cell line; assay: ARE luciferase reporter cell-based assay; conditions: Homo sapiens, HEK293, 24 h, average of results obtained;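 also: luciferase signal tracks Nrf2 activation of the ARE once compounds disrupt KEAP1-Nrf2 binding, read with One-Glo reagent, DMSO serving as low control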
[2] = target: Kelch domain of human KEAP1 (321-624 aa) (Homo sapiens (Human), UniProt Q14145); assay: KEAP1 KELCH ThermoFluor binding assay; conditions: KEAP Kelch […], 1,8-ANS, pH 7.0, average of results obtained, read-out: Tf Kd;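 also: Ligand-induced melting temperature shift of E. coli-expressed KEAP1 Kelch protein, Kd estimated from concentration-response curves of ΔTm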
Chain of Kelch domain of human KEAP1 (321-624 aa) (Q14145 321-624): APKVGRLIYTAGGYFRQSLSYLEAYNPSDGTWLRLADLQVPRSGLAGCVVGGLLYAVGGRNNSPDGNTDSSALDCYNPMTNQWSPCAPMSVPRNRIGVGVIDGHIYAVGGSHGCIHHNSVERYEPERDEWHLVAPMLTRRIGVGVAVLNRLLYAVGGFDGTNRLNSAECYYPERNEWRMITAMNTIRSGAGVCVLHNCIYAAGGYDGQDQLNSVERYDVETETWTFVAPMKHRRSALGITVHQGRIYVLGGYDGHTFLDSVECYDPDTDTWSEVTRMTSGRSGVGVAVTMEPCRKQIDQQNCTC

| Kd [2] [nM] | Structure (SMILES) | EC50 [1] [nM] |
| --- | --- | --- |
| 2530 | Cc1cnc2c(c1)S(=O)(=O)N(Cc1cc([C@@H](c3ccn4c(C5CC5)nnc4c3C)C(C)(C)C(=O)O)ccc1C)CC1(COC1)O2 (single isomer, unassigned) [Example 622, (*S)-3-(3-Cyclopropyl-8-methyl-[1,2,4]triazolo[4,3-a]pyridin-7-yl)-2,2-dimethyl-3-(4-methyl-3-((8′-methyl-1′,1′-dioxidospiro[oxetane-3,4′-pyrido[2,3-b][1,4,5]oxathiazepin]-2′(3′H)-yl)methyl)phenyl)propanoic Acid] | 3230 |
| < 1 | Cc1cnc2c(c1)S(=O)(=O)N(Cc1cc([C@@H](c3ccc4c(nnn4C4CC4)c3C)C(C)(C)C(=O)O)cnc1C)CC1(COC1)O2 (single isomer, unassigned) [Example 623, (*R)-3-(1-Cyclopropyl-4-methyl-1H-benzo[d][1,2,3]triazol-5-yl)-2,2-dimethyl-3-(6-methyl-5-((8′-methyl-1′,1′-dioxidospiro[oxetane-3,4′-pyrido[2,3-b][1,4,5]]oxathiazepin]-2′(3′H)-yl)methyl)pyridine-3-yl)propanoic Acid] | 7.5 |
| 18400 | Cc1cnc2c(c1)S(=O)(=O)N(Cc1cc([C@H](c3ccc4c(nnn4C4CC4)c3C)C(C)(C)C(=O)O)cnc1C)CC1(COC1)O2 (single isomer, unassigned) [Example 624, (*S)-3-(1-Cyclopropyl-4-methyl-1H-benzo[d][1,2,3]triazol-5-yl)-2,2-dimethyl-3-(6-methyl-5-((8′-methyl-1′,1′-dioxidospiro[oxetane-3,4′-pyrido[2,3-b][1,4,5]]oxathiazepin]-2′(3′H)-yl)methyl)pyridine-3-yl)propanoic Acid] | 3660 |
| < 1 | Cc1cc2c(nc1OCCN1CCCC1)OC1(CC1)CN(Cc1cc([C@@H](c3ccc4c(nnn4C4CC4)c3C)C(C)(C)C(=O)O)cnc1C)S2(=O)=O (single isomer, unassigned) [Example 625, (*R)-3-(1-Cyclopropyl-4-methyl-1H-benzo[d][1,2,3]triazol-5-yl)-2,2-dimethyl-3-(6-methyl-5-((8′-methyl-1′,1′-dioxido-7′-(2-(pyrrolidine-1-yl)ethoxy)spiro[cyclopropane-1,4′-pyrido[2,3-b][1,4,5]]oxathiazepin]-2′(3′H)-yl)methyl)pyridine-3-yl)propanoic Acid] | 70.6 |
| 2980 | Cc1cnc2c(c1)S(=O)(=O)N(Cc1nc([C@H](c3ccn4c(C(F)F)nnc4c3C)C(C)(C)C(=O)O)ccc1C)CC1(COC1)O2 (single isomer, unassigned) [Example 626, (*R)-3-(3-(Difluoromethyl)-8-methyl-[1,2,4]triazolo[4,3-a]pyridin-7-yl)-2,2-dimethyl-3-(5-methyl-6-((8′-methyl-1′,1′-dioxidospiro[oxetane-3,4′-pyrido[2,3-b][1,4,5]oxathiazepin]-2′(3′H)-yl)methyl)pyridin-2-yl)propanoic Acid] | 229 |
| < 1 | Cc1cnc2c(c1)S(=O)(=O)N(Cc1nc([C@@H](c3ccn4c(C(F)F)nnc4c3C)C(C)(C)C(=O)O)ccc1C)CC1(COC1)O2 (single isomer, unassigned) [Example 627, (*S)-3-(3-(Difluoromethyl)-8-methyl-[1,2,4]triazolo[4,3-a]pyridin-7-yl)-2,2-dimethyl-3-(5-methyl-6-((8′-methyl-1′,1′-dioxidospiro[oxetane-3,4′-pyrido[2,3-b][1,4,5]oxathiazepin]-2′(3′H)-yl)methyl)pyridin-2-yl)propanoic Acid] | 1.35 |
